Like-named read-outs stand apart in the source and are kept apart here. A value given as a limit tells only on which side of the number the result lay.

These results are taken from PMC8815339 (The Biochemical journal, 2009).

The subject of assay [1] is rat PRMT1 (rPRMT1). The following applies: cited from earlier work.
Assay [2] concerns the target P. falciparum 3D7-luc. Kind of assay: Parasite growth inhibition, luciferase-expressing strain 3D7-luc. It is filed as cell-based, Plasmodium falciparum. The settings on record: for IC50: read-out: IC50s for 3D7 growth.
Assay [3] addresses T1, recombinant PfPRMT1 (MBP-PfPRMT1) (Plasmodium falciparum, UniProt Q8ILK1).
T1 sequence (Q8ILK1 1-401): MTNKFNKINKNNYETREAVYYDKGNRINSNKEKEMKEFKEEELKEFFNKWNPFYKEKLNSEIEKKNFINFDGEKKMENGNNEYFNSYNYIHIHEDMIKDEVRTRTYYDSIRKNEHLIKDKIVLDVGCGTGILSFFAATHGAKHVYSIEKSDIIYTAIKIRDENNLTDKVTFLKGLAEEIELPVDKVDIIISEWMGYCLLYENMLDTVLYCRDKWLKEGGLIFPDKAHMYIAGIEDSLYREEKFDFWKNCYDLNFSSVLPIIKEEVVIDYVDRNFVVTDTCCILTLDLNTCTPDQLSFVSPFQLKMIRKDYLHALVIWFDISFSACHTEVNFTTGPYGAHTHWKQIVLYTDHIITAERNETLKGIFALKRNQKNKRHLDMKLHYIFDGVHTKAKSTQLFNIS
Kind of assay: Inhibition of recombinant PfPRMT1 methylation activity. The settings on record: chaetocin: in the lower micromolar concentration. In kind it is biochemical.

The mark [4] stands for this setting: late ring-stage parasites, 48 h, 37°C, 2% parasitemia, 2% hematocrit.
Where [5] appears, read: Plasmodium falciparum, 3D7, 48 h.

As for `C[S+](CC[C@H](N)C(=O)[O-])C[C@H]1O[C@@H](n2cnc3c(N)ncnc32)[C@H](O)[C@@H]1O` (stereo partly drawn) [AdoMet, S-adenosylmethionine], the Km (in general, the substrate concentration at which the rate is half of its maximum) in assay [1] (read-out: Km, rPRMT1, ref [31]) is 2.52 ± 0.54 µM. Also, in assay [1] (ref [31]), the “kcat, rPRMT1” value is 0.014 ± 0.0005 s⁻¹. Consider `CSC[C@H]1O[C@@H](n2cnc3c(N)ncnc32)[C@H](O)[C@@H]1O` [5-Deoxy-5-methylthioadenosine (MTA), 5-Deoxy-5-methylthioadenosine], for which the IC50 in assay [2] (setting [4]) was above 100 µM.

On to `Nc1ncnc2c1ncn2[C@@H]1O[C@H](C[C@@H](N)CC[C@H](N)C(=O)O)[C@@H](O)[C@H]1O` [Sinefungin], for which, in assay [2] (setting [5]), the IC50 was 2.71 ± 0.04 µM. In assay [2] (setting [4]), the “IC50s for 3D7 growth” value is recorded as “lower micromolar”.

With `CN1C(=O)[C@@]23C[C@]4([C@]56C[C@@]78SS[C@@](CO)(C(=O)N7[C@H]5Nc5ccccc56)N(C)C8=O)c5ccccc5N[C@@H]4N2C(=O)[C@]1(CO)SS3` [Chaetocin], the “Inhibition of PfPRMT1 (in words)” value in assay [3] was “no obvious inhibition”. Besides, the IC50 in assay [2] (setting [5]) came out at 14 ± 1.56 µM.

As for `O=C1OC2(c3ccccc31)c1cc(Br)c(O)c(Br)c1Oc1c2cc(Br)c(O)c1Br` [Eosin Y (AMI-5), Eosin Y], the “Inhibition of PfPRMT1 (in words)” value in assay [3] is given as “strong inhibitory activity”. Moreover, in assay [2] (setting [5]), the IC50 stood at 14.8 ± 1.01 µM.
